Data from patent publication US20070213305A1, “N-alkyl-N-aryl-thienopyrimidin-4-amines and analogs as activators of caspases and inducers of apoptosis and the use thereof” (Cytovia, Inc., priority 2005, published 2007).
Like-named read-outs stand apart in the source and are kept apart here.

Legend:
[1] = system: human lung cancer cell line H1299; assay: Caspase cascade activation (DEVD-R110 fluorogenic substrate) in H1299 cells; type: cell-based; conditions: read-out: Caspase Activation Potency EC50 (nM) (24 h) H1299
Protocol: (§1) Human breast cancer cell line T-47D, human lung cancer cell line H1299 and human hepatocellular carcinoma cell line SNU398 were grown according to media component mixtures designated by American Type Culture Collection+10% FCS (Invitrogen Corporation), in a 5% CO2-95% humidity incubator at 37° C. T-47D and H1299 cells were maintained at a cell density between 50 and 80% confluency at a cell density of 0.1 to 0.6×10^6 cells/mL. Cells were harvested at 600×g and resuspended at 0.65×10^6 cells/mL into appropriate media+10% FCS. An aliquot of 22.5 μL of cells was added to a well of a 384-well microtiter plate containing 2.5 μL of a 10% DMSO in RPMI-1640 media solution containing 0.16 to 100 μM of N-(4-methoxyphenyl)-N, 2-dimethylthieno[3,2-d]pyrimidin-4-amine or other test compound (0.016 to 10 μM final). An aliquot of 22.5 μL of cells was added to a well of a 384-well microtiter plate containing 2.5 μL of a 10 % DMSO in RPMI-1640 media solution without test compound as the control sample. The samples were mixed by agitation and then incubated at 37° C. for 24 h or 48 h in a 5% CO2-95% humidity incubator. After incubation, the samples were removed from the incubator and 25 μL of a solution containing 14 μM of N-(Ac-DEVD)-N′-ethoxycarbonyl-R110 (SEQ ID No.:1) fluorogenic substrate (Cytovia, Inc.; WO99/18856), 20% sucrose (Sigma), 20 mM DTT (Sigma), 200 mM NaCI (Sigma), 40 mM Na PIPES buffer pH 7.2 (Sigma), and 500 μg/mL lysolecithin (Calbiochem) was added. The samples were mixed by agitation and incubated at room temperature. Using a fluorescent plate reader (Model SPECTRAfluor Plus, Tecan), an initial reading (T=0) was made approximately 1-2 min after addition of the substrate solution, employing excitation at 485 nm and emission at 530 nm, to determine the background fluorescence of the control sample. After the 3 h incubation, the samples were read for fluorescence as above (T=3 h).
(§2) The Relative Fluorescence Unit values (RFU) were used to calculate the sample readings as follows: RFU(T=3h)-Control RFU(T=0)=Net RFU(T=3h)
(§3) The activity of caspase cascade activation was determined by the ratio of the net RFU value for N-(4-methoxyphenyl)-N,2-dimethylthieno[3,2-d]pyrimidin-4-amine or other test compound to that of control samples. The EC50 (nM) was determined by a sigmoidal dose-response calculation (Prism 3.0, GraphPad Software Inc.).

[2] = system: human breast cancer cell line T-47D; assay: Caspase cascade activation (DEVD-R110 fluorogenic substrate) in T-47D cells; type: cell-based; conditions: 24 h, read-out: Caspase Activation Potency EC50 (nM) (24 h) T-47D
Protocol: as §1, §2, §3

T-47D cells = assay: Inhibition of cell proliferation (GI50, CellTiter-Glo) in T-47D cells; type: cell-based, human; conditions: T47D, 48 h incubation, read-out: GI50 in Cancer Cells GI50 (nM) T47D
Protocol: (§4) T-47D, HT29, H1299, MX-1 and MDAMB435 cells were grown and harvested as in Example 29. An aliquot of 90 μL of cells (4.4×10^4 cells/mL) was added to a well of a 96-well microtiter plate containing 5 μL of a 10% DMSO in RPMI-1640 media solution containing 10 nM to 100 μM of N-(4-methoxyphenyl)-N,2-dimethylthieno[2,3-d]pyrimidin-4-amine (1 nM to 10 μM final) or related compounds. An aliquot of […] of cells was added to a well of a 96-well microtiter plate containing 5 μL of a 10% DMSO in RPMI-1640 media solution without compound as the control sample for maximal cell proliferation (LMax). The samples were mixed by agitation and then incubated at 37° C. for 48 h in a 5% CO2-95% humidity incubator. After incubation, the samples were removed from the incubator and 25 μL of CellTiter-Glo™ reagent (Promega) was added. The samples were mixed by agitation and incubated at room temperature for 10-15 min. Plates were then read using a luminescent plate reader (Model SPECTRAfluor Plus, Tecan) to give Ltest values.
(§5) The samples were mixed by agitation and then incubated at 37° C. for 0.5 h in a 5% CO2-95% humidity incubator. After incubation, the samples were removed from the incubator and 25 μL of CellTiter-Glo™ reagent (Promega) was added. The samples were mixed by agitation and incubated at […] room temperature in a 5% CO2-95% humidity incubator. […] was read as above, (Lstart) defining luminescence for initial cell number used as baseline in GI50 determinations. ps Calculation:
(§6) GI50 (dose for 50% inhibition of cell proliferation) is the concentration where [(LTest-LStart)/(LMax-LStart)]=0.5.

MDAMB435 cells = assay: Inhibition of cell proliferation (GI50, CellTiter-Glo) in MDAMB435 cells; type: cell-based; conditions: MDAMB435, 48 h incubation, read-out: GI50 in Cancer Cells GI50 (nM) MDAMB435
Protocol: as §4, §5, §6

MX-1 cells = assay: Inhibition of cell proliferation (GI50, CellTiter-Glo) in MX-1 cells; type: cell-based; conditions: MX1, 48 h incubation, read-out: GI50 in Cancer Cells GI50 (nM) MX1
Protocol: as §4, §5, §6

H1299 cells = assay: Inhibition of cell proliferation (GI50, CellTiter-Glo) in H1299 cells; type: cell-based, human; conditions: H1299, 48 h incubation, read-out: GI50 in Cancer Cells GI50 (nM) H1299
Protocol: as §4, §5, §6

[3] = system: human hepatocellular carcinoma cell line SNU398; assay: Caspase cascade activation (DEVD-R110 fluorogenic substrate) in SNU398 cells; type: cell-based
Protocol: as §1, §2, §3
Several compounds were also tested in other cancer cells lines (48 h assay), including human hepatocellular carcinoma cell line SNU398, human colon carcinoma cell line […], human B cell lymphoblastoid cell line Ramos, human Burkitt's lymphoma cell line Namalwa, and cervical cancer cell line HeLa, and the data are summarized in Table II.

HT29 cells = assay: Inhibition of cell proliferation (GI50, CellTiter-Glo) in HT29 cells; type: cell-based; conditions: HT29, 48 h incubation, read-out: GI50 in Cancer Cells GI50 (nM) HT29
Protocol: as §4, §5, §6

[4] = system: human sarcoma cell line MES-SA; assay: Inhibition of cell proliferation (GI50) in MES-SA cells; type: cell-based
Protocol: as §4, §5, §6
(§7) Several compounds were tested in other cancer cell lines, including human sarcoma cell line MES-SA and multi-drug resistant (MDR) human sarcoma cell line MES-SA/ADR, murine leukemia cell line P388 and multi-drug resistant (MDR) murine leukemia cell line P388ADR, and the data are summarized in Table IV.

[5] = system: multi-drug resistant (MDR) human sarcoma cell line MES-SA/ADR; assay: Inhibition of cell proliferation (GI50) in MES-SA/ADR cells; type: cell-based
Protocol: as §4, §5, §6, §7

[6] = system: multi-drug resistant (MDR) murine leukemia cell line P388ADR; assay: Inhibition of cell proliferation (GI50) in P388/ADR cells; type: cell-based
Protocol: as §4, §5, §6, §7

[7] = system: murine leukemia cell line P388; assay: Inhibition of cell proliferation (GI50) in P388 cells; type: cell-based
Protocol: as §4, §5, §6, §7

[8] = system: cervical cancer cell line HeLa; assay: Caspase cascade activation in HeLa cells; type: cell-based; conditions: Homo sapiens, 48 h, read-out: Caspase Activation Potency EC50 (nM) (48 h) HeLa
Protocol: (§8) Human breast cancer cell line T-47D, human lung cancer cell line H1299 and human hepatocellular carcinoma cell line SNU398 were grown according to media component mixtures designated by American Type Culture Collection+10% FCS (Invitrogen Corporation), in a 5% CO2-95% humidity incubator at 37° C. T-47D and H1299 cells were maintained at a cell density between 50 and 80% confluency at a cell density of 0.1 to 0.6×10^6 cells/mL. Cells were harvested at 600×g and resuspended at 0.65×10^6 cells/mL into appropriate media+10% FCS. […] Using a fluorescent plate reader (Model SPECTRAfluor Plus, Tecan), an initial reading (T=0) was made approximately 1-2 min after addition of the substrate solution, employing excitation at 485 nm and emission at 530 nm, to determine the background fluorescence of the control sample. After the 3 h incubation, the samples were read for fluorescence as above (T=3 h).
as §2
as §3, with “Inc.). […]” for “Inc.).”

HCT116 = assay: Caspase cascade activation in HCT116 cells; type: cell-based; conditions: Homo sapiens, HCT-116; HCT116, 48 h; read-out: Caspase Activation Potency EC50 (nM) (48 h) HCT116
Protocol: as §8, §2
as §3, with “Inc.). […]” for “Inc.).”

[9] = system: human B cell lymphoblastoid cell line Ramos; assay: Caspase cascade activation in Ramos cells; type: cell-based; conditions: 48 h, read-out: Caspase Activation Potency EC50 (nM) (48 h) Ramos
Protocol: as §8, §2
as §3, with “Inc.). […]” for “Inc.).”

[10] = system: human lymphoma cell line Raji; assay: Caspase cascade activation in Raji cells; type: cell-based; conditions: 48 h, read-out: Caspase Activation Potency EC50 (nM) (48 h) Raji
Protocol: as §8, §2
as §3, with “Inc.). […]” for “Inc.).”

[11] = system: human Burkitt's lymphoma cell line Namalwa; assay: Caspase cascade activation in Namalwa cells; type: cell-based; conditions: Burkitts lymphoma cell, 48 h, read-out: Caspase Activation Potency EC50 (nM) (48 h) Namalwa
Protocol: as §8, §2
as §3, with “Inc.). […]” for “Inc.).”

[12] = Homo sapiens, SNU-398, SNU398, 24 h, read-out: Caspase Activation Potency EC50 (nM) (24 h) SNU398
[13] = Homo sapiens, SNU-398, SNU398, 48 h, read-out: Caspase Activation Potency EC50 (nM) (48 h) SNU398

Compound	EC50 ([1]; Homo sapiens, NCI-H1299, 24 h)	EC50 ([2]; Homo sapiens, T47D)	GI50 in Multi-Cancer Cells EC50 (nM) MES-SA [4]	GI50 in Multi-Cancer Cells EC50 (nM) MES-SA/ADR [5]	EC50 [3, 12]	GI50 in Multi-Cancer Cells EC50 (nM) P388/ADR [6]	GI50 in Multi-Cancer Cells EC50 (nM) P388 [7]	EC50 [8]	EC50 (HCT116)	EC50 [3, 13]	other results
COc1ccc(N(C)c2nc(C)nc3scc(C)c23)cc1 [Example 4, N-(4-Methoxyphenyl)-N,2,5-trimethylthieno[2,3-d]pyrnmidin-4-amine]											EC50 ([1]; H1299, 24 h): 9 nM; EC50 [2]: 4 nM; GI50 (T-47D cells): 5 nM; GI50 (MDAMB435 cells): 5 nM; GI50 (MX-1 cells): 5 nM; GI50 (H1299 cells): 2 nM; EC50 ([3]; SNU398, 24 h, read-out: Caspase Activation Potency EC50 (nM) (24 h) SNU398): 4 nM; GI50 (HT29 cells): 5 nM
COc1ccc(N(C)c2ncnc3ccsc23)cc1 [Example 6, N-(4-Methoxyphenyl)-N-methylthieno[3,2-d]pyrimidin-4-amine]	56 nM	45 nM	58 nM	100 nM	123 nM	105 nM	74 nM				GI50 (T-47D cells; Homo sapiens): 4 nM; GI50 (MDAMB435 cells; Homo sapiens, MDA-MB-435): 16 nM; GI50 (MX-1 cells; Homo sapiens): 40 nM; GI50 (H1299 cells; Homo sapiens, NCI-H1299): 38 nM; GI50 (HT29 cells; Homo sapiens, HT-29): 40 nM
COc1ccc(N(C)c2nc(C)nc3sc(C)c(C)c23)cc1 [Example 24, N-(4-Methoxyphenyl)-N,2,5,6-tetramethylthieno[2,3-d]pyrimidin-4-amine]	59 nM	17 nM			27 nM			30 nM	15 nM	16 nM	
COc1ccc(N(C)c2nc(C)nc3sccc23)cc1.Cl [Example 5, N-(4-Methoxyphenyl)-N,2-dimethylthieno[2,3-d]pyrimidin-4-amine hydrochloride]	14 nM	8 nM	3 nM	5 nM	12 nM	4 nM	7 nM	8 nM	27 nM	9 nM	EC50 [9]: 27 nM; EC50 [10]: 20 nM; EC50 [11]: 20 nM
COc1ccc(N(C)c2nc(C)nc3ccsc23)cc1 [Example 1, N-(4-Methoxyphenyl)-N,2-dimethylthieno[3,2-d]pyrimidin-4-amine]	24 nM	14 nM	12 nM	13 nM	28 nM	16 nM	15 nM				
